According to ChEMBL document CHEMBL1134322, “A novel approach for the development of selective Cdk4 inhibitors: library design based on locations of Cdk4 specific amino acid residues” (J Med Chem, 2001):

What was measured:
[1] = target: Cyclin-dependent kinase 2/cyclin A (Homo sapiens, UniProt P24941); assay: Inhibition of human recombinant cyclin A-CDK2; format: protein-complex assay
[2] = target: Cyclin-dependent kinase 1/cyclin B (Homo sapiens, UniProt P06493); assay: Inhibition of human recombinant cyclin B-CDK1; format: protein-complex assay
[3] = Inhibition of human recombinant cyclin D2-CDK4
[4] = target: Cyclin-dependent kinase 2 and 4 (CDK2 and CDK4) (Homo sapiens) (UniProt P11802+P24941); assay: Selectivity for CDK4 over CDK2; format: protein assay
Homo sapiens = species on record: Homo sapiens; assay: Selectivity for CDK4 over CDK1
CaM kinase II = CaM kinase II (Homo sapiens, UniProt Q13557+Q13555+Q13554+Q9UQM7); assay: Inhibition of calcium/calmodulin-dependent protein kinase type II; format: protein assay
[5] = target: Fibroblast growth factor receptor 1 (Homo sapiens, UniProt P11362); assay: Inhibition of fibroblast growth factor receptor 1
Fibroblast growth factor receptor 1, sequence (P11362 whole entry): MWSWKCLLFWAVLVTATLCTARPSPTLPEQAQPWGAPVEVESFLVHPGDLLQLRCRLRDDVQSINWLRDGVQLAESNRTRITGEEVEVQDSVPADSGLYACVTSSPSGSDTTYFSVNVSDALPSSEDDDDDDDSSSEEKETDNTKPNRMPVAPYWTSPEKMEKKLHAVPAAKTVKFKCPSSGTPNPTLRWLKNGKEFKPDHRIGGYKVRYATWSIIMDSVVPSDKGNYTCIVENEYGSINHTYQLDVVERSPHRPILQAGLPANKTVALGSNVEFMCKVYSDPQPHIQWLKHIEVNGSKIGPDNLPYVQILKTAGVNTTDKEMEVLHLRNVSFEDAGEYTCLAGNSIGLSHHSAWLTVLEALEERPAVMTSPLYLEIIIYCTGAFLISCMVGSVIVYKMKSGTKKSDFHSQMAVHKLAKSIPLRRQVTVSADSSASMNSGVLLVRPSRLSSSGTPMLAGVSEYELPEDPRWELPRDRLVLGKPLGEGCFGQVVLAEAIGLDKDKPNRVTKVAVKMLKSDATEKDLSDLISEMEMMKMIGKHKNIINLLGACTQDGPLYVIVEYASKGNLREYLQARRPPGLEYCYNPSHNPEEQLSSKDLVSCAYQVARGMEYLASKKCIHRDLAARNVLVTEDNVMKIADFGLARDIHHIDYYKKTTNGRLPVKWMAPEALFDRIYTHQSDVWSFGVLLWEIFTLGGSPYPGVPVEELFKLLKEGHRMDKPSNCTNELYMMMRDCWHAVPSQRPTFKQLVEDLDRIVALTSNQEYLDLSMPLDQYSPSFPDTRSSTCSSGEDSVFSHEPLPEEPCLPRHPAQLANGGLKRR

[6] = target: Mitogen-activated protein kinase 3 (Homo sapiens, UniProt P27361); assay: Inhibition of ERK1 ser/thr kinase.
Mitogen-activated protein kinase 3, sequence (P27361 whole entry): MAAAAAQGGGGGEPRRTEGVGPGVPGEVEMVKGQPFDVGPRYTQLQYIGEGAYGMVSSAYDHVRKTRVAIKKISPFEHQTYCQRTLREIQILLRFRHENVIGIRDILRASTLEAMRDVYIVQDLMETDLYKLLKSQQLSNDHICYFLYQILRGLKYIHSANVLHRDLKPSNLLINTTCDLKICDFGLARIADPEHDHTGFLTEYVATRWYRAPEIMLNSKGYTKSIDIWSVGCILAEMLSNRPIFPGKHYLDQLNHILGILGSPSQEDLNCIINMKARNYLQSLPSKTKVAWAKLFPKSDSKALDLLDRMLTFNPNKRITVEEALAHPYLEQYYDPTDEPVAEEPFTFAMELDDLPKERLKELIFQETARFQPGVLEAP

[7] = target: Dual specificity mitogen-activated protein kinase kinase 1 (Homo sapiens, UniProt Q02750); assay: Inhibition of mitogen activated protein kinase kinase 1
Dual specificity mitogen-activated protein kinase kinase 1, sequence (Q02750 whole entry): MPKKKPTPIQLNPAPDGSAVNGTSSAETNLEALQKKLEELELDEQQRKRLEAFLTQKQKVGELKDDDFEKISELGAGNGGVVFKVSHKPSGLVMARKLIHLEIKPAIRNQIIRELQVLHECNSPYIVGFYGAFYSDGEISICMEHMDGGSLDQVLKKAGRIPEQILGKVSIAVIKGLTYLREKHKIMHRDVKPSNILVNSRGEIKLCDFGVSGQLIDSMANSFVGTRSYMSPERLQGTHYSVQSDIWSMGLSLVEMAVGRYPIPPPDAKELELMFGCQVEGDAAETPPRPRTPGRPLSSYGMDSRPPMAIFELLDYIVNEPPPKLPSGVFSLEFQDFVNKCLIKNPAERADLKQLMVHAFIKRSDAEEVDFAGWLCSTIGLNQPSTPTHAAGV

[8] = target: cAMP-dependent protein kinase (PKA) (Homo sapiens, UniProt P22694+P17612+P22612); assay: Inhibition of PKA ser/thr kinase.; format: protein assay
[9] = target: Platelet-derived growth factor receptor beta (Homo sapiens, UniProt P09619); assay: Inhibition of PDGFRbeta tyrosine kinase.
Platelet-derived growth factor receptor beta, sequence (P09619 whole entry): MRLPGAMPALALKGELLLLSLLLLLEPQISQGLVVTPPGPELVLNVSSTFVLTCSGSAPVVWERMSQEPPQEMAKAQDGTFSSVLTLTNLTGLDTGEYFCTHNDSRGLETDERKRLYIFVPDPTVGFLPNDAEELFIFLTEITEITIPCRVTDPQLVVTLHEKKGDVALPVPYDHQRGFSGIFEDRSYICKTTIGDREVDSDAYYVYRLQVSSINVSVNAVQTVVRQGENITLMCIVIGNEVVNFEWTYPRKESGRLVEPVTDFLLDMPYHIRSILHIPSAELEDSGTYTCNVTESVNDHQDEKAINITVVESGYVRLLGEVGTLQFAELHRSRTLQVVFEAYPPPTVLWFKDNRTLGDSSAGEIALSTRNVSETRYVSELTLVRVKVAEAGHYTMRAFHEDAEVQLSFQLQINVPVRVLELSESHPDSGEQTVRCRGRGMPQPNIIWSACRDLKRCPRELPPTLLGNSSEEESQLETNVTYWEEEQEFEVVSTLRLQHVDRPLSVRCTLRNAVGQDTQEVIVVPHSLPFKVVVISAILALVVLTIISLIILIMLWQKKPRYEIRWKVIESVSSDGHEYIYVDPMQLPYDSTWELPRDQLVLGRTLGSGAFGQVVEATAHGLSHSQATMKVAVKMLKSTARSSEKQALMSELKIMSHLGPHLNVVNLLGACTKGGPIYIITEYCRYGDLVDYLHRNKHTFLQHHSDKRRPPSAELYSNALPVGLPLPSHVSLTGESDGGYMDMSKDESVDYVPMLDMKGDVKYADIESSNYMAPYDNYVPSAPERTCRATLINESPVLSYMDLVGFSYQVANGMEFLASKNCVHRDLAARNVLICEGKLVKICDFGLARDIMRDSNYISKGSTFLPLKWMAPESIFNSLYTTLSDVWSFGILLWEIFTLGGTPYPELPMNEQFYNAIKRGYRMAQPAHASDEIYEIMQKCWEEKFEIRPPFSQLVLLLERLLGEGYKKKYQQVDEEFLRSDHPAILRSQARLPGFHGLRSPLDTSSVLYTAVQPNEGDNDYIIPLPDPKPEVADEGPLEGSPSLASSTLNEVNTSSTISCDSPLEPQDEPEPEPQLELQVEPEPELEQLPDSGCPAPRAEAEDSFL

Protein kinase C (PKC) = assay: Inhibition of PKC ser/thr kinase.; format: protein assay, Homo sapiens
[10] = target: Proto-oncogene tyrosine-protein kinase Src (Homo sapiens, UniProt P12931); assay: Inhibition of Src tyrosine kinase.
Proto-oncogene tyrosine-protein kinase Src, sequence (P12931 2-536 limits assumed): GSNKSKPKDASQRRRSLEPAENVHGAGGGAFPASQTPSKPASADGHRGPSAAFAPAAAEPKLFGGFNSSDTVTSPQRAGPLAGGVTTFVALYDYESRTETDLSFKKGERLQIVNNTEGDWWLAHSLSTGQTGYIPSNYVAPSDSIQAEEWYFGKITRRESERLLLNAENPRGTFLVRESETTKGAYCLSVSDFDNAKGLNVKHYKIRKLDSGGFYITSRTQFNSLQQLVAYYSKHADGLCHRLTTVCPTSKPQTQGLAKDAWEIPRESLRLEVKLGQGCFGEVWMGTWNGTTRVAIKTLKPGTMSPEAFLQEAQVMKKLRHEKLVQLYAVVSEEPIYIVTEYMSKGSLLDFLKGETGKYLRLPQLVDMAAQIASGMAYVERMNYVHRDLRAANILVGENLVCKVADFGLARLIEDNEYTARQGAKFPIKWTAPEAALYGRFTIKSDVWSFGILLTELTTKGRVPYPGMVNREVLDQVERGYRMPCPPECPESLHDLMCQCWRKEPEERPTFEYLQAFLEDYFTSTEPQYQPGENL

[11] = target: Vascular endothelial growth factor receptor 1 (Homo sapiens, UniProt P17948); assay: Inhibition of Flt-1 tyrosine kinase.
[12] = Inhibition of cyclin D2-CDK4 ser/thr kinase.; set-up: species or system Homo sapiens
[13] = target: T1, Tyrosine-protein kinase ZAP-70 (Homo sapiens, UniProt P43403); assay: Inhibition of Zap70 tyrosine kinase.
T1 sequence (P43403 whole entry): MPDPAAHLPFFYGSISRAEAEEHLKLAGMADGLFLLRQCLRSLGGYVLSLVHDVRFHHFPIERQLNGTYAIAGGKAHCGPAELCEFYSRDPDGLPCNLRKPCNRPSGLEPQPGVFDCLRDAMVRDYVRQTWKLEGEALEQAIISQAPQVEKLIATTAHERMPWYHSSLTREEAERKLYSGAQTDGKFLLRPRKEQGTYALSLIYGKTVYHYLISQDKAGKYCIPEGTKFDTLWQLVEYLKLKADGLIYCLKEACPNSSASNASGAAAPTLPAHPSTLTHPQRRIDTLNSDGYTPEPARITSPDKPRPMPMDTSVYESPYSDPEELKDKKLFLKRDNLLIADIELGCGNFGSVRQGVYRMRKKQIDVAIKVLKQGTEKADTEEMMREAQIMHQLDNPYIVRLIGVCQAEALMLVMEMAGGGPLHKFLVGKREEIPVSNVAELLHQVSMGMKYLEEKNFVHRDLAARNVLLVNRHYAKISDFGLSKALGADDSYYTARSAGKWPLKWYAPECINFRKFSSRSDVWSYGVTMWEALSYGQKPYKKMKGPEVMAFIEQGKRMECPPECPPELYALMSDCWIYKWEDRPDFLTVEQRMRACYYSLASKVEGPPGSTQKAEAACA

CDK6/cyclin D1 = CDK6/cyclin D1 (Homo sapiens, UniProt Q00534); assay: Inhibition of cyclin D1-CDK6 ser/thr kinase.; format: protein-complex assay
CDK6/cyclin D1, sequence (P24385 whole entry): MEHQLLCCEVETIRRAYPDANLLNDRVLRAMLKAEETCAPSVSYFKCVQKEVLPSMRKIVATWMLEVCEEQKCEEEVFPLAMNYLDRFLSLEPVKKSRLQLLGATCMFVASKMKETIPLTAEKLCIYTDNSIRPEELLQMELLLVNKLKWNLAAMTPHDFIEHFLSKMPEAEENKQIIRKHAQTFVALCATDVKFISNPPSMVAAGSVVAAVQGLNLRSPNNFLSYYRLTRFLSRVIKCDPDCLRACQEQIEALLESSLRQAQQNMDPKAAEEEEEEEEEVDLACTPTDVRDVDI
CDK6/cyclin D1, sequence (Q00534 whole entry): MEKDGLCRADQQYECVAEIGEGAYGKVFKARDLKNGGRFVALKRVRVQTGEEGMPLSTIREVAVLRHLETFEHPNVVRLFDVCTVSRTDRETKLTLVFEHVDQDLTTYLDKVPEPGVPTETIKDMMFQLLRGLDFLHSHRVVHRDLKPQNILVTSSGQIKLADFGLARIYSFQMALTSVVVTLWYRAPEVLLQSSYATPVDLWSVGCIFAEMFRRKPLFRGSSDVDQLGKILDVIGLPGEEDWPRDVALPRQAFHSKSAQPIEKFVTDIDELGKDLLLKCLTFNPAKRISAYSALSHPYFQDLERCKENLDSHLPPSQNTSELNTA

[14] = target: Tyrosine-protein kinase Lck (Homo sapiens, UniProt P06239); assay: Inhibition of Lck tyrosine kinase.
Tyrosine-protein kinase Lck, sequence (P06239 whole entry): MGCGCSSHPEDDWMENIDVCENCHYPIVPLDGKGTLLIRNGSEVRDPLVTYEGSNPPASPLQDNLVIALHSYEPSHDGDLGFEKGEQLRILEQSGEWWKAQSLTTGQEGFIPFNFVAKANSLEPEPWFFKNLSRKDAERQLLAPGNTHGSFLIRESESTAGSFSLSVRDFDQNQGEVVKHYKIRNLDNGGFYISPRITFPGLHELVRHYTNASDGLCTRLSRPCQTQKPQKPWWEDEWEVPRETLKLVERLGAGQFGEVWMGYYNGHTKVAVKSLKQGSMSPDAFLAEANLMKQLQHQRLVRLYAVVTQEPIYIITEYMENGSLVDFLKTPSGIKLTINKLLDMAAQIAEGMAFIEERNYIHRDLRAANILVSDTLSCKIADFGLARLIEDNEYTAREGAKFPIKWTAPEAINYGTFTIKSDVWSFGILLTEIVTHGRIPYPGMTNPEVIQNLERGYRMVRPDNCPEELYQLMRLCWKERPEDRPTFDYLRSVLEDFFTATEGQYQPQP

[15] = target: Mitogen-activated protein kinase 14 (Homo sapiens, UniProt Q16539); assay: Inhibition of p38-alpha ser/thr kinase.
Mitogen-activated protein kinase 14, sequence (Q16539 whole entry): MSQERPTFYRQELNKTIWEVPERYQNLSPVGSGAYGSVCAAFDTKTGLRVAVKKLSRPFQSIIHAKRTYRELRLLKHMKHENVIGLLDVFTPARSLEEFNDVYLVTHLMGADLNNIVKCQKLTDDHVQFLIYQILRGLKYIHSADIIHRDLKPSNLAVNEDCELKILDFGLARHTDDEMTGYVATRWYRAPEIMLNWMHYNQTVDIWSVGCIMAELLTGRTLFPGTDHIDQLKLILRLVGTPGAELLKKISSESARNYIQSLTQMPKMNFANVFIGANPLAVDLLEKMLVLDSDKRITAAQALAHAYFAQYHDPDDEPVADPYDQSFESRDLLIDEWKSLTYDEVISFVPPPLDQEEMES

[16] = target: RAC-alpha serine/threonine-protein kinase (Homo sapiens, UniProt P31749); assay: Inhibition of PKBalpha (Akt1) ser/thr kinase.

| IC50 [1] | IC50 [3] | Selectivity [4] | Compound | also measured |
| --- | --- | --- | --- | --- |
| – | 0.029 µM | – | O=C(Nc1cc[nH]n1)Nc1cccc2c1[C@@H]1CCCN1C2=O | – |
| 7.5 µM | 0.47 µM | 16 | O=C(Nc1cc(CN2CCCC2)[nH]n1)Nc1cccc2c1C1CCCN1C2=O (stereo unspecified) | – |
| 25 µM | 0.22 µM | 110 | O=C(Nc1cc([C@@H]2CCCN2)[nH]n1)Nc1cccc2c1[C@H]1CCCN1C2=O | Selectivity (Homo sapiens): 140; IC50 [2]: 31 µM |
| – | 0.065 µM | 150 | O=C(Nc1cc(CNC2CCCC2)[nH]n1)Nc1cccc2c1C1CCCN1C2=O (stereo unspecified) | – |
| – | 0.021 µM | – | O=C(Nc1cc[nH]n1)Nc1cccc2c1[C@H]1CCCN1C2=O | – |
| – | 0.21 µM | 120 | O=C(Nc1cc([C@@H]2CCCN2)[nH]n1)Nc1cccc2c1[C@@H]1CCCN1C2=O | Selectivity (Homo sapiens): 130 |
| 14 µM | 0.29 µM | 48 | CNCc1cc(NC(=O)Nc2cccc3c2C2CCCN2C3=O)[nH]n1 (stereo unspecified) | – |

More lines, now with the values behind:

| Compound | IC50 [1] | IC50 [3] | Selectivity [4] | also measured |
| --- | --- | --- | --- | --- |
| O=C(Nc1cc([C@@H]2CCCN2)n[nH]1)Nc1cccc2c1[C@@H]1CCCN1C2=O | 25 µM | – | – | IC50 [2]: 28 µM |
| O=C(Nc1cc(CNC2CCCC2)n[nH]1)Nc1cccc2c1C1CCCN1C2=O (stereo unspecified) | 9.7 µM | – | – | – |
| CC(C)NCc1cc(NC(=O)Nc2cccc3c2C2CCCN2C3=O)[nH]n1 (stereo unspecified) | 17 µM | 0.13 µM | 130 | – |
| O=C(Nc1cc(CNC2CCCCC2)[nH]n1)Nc1cccc2c1C1CCCN1C2=O (stereo unspecified) | 20 µM | 0.72 µM | 27 | – |
| O=C(Nc1cc(CN2CCCCC2)[nH]n1)Nc1cccc2c1C1CCCN1C2=O (stereo unspecified) | 12 µM | 0.25 µM | 48 | – |
| CCCNCc1cc(NC(=O)Nc2cccc3c2C2CCCN2C3=O)[nH]n1 (stereo unspecified) | 12 µM | 0.16 µM | 75 | – |
| O=C(Nc1ccccn1)Nc1cccc2c1[C@H]1CCCN1C2=O | – | – | – | IC50 (CaM kinase II): > 10 µM; IC50 [5]: 6.7 µM; IC50 [6]: > 10 µM; IC50 [7]: > 10 µM; IC50 [8]: > 20 µM; IC50 [9]: 5 µM; IC50 (Protein kinase C (PKC)): > 20 µM; IC50 [10]: > 5 µM; IC50 [11]: 2.8 µM; IC50 [12]: 0.042 µM; IC50 [13]: > 10 µM; IC50 (CDK6/cyclin D1): 0.071 µM; IC50 [14]: 2.3 µM; IC50 [15]: > 10 µM; IC50 [16]: > 10 µM |
| CC(C)(C)NCc1cc(NC(=O)Nc2cccc3c2C2CCCN2C3=O)[nH]n1 (stereo unspecified) | 9.8 µM | 0.056 µM | 180 | – |
